Experimental data taken from patent publication US7122529B2, “Compounds that release nitric oxide at controlled rates upon photolysis” (The Johns Hopkins University, priority 2001, dated 2006).
Marks after values point to notes of the source that are not given here. Values belong to the compound of their own block, whether it stands above or below them.

Key:
Type in all cases: physicochemical
[1] = Quantum yields of photolysis of compounds 6 and 9; conditions: ~20 μM in 90–95% aqueous acetonitrile, below 40% conversion
[2] = Diazeniumdiolate / NO released upon photolysis of compounds 6 and 9 (electrochemical NO probe); conditions: 0.498 μM, 100% conversion; for % NO: Xenon arc lamp with long-pass 324 nm filter, NO liberated by acidification; for % Diazeniumdiolate: pH 12.2, Xenon arc lamp with long-pass 324 nm filter, derived with 1.5 / 1.8 eq NO
Description: This example describes a general procedure for the determination of diazeniumdiolate released upon photolysis of compounds 6 and 9. The amiNO-700 probe was calibrated using ascorbic acid/sodium nitrite before and after NO measurements were recorded. Calibration curves were prepared in order to relate current (detected by the instrument) with concentration of NO. Stock solutions of compounds 6 and 9 were prepared to be 100 μM in acetonitrile, and of these 15 μL aliquots were diluted into to 3 mL of a pH 12.2 aqueous solution. The resulting 0.498 μM solutions were photolyzed with a Xenon arc lamp and a long-pass 324 nm filter for lengths of time appropriate to reach 100% conversion (6–7 minutes for most compounds at this concentration). Under these basic conditions any diazeniumdiolate generated photochemically is stable, and neither sodium-1-(N,N-diethylamino)-1-diazen-1-ium-1,2-diolate (compound 1) or sodium-1-(piperidin-1-yl)-diazen-1-ium-1,2-diolate (compound 20) absorbs at wavelengths above 324 nm. No NO was measured electrochemically at this pH, indicating there are no photochemical paths that lead directly to NO. The NO associated with the photochemically generated diazeniumdiolate was liberated by the addition of 10 μL of 1.0 M sulfuric acid (final solution pH's were typically 2–3. Using the calibration curve and the fact that the amount of NO released upon thermal decomposition of compounds 1 and 20 was calculated to be 1.5 and 1.8 eq. respectively, the absolute percentage of diazeniumdiolate generated upon photolysis of compounds 6 and 9 was determined. FIG. 2 depicts the amount of nitric oxide produced upon photolysis from a selection of 1-methylnaphthyl and 2-methylnaphthyl-O^2-substituted diazeniumdiolates having a backbone of compounds 6 and 9.
Compounds 6 and 9 are soluble in 99% aqueous acetonitrile up to 20 μM and are thermally stable indefinitely at pH 4–11, 25° C. at this concentration. Analysis of the products following photolysis (Rayonet, 300 or 350 nm, Xenon arc lamp with a long-pass 324 nm filter) of compounds 6 and 9 in both argon- and oxygen-saturated 99% aqueous acetonitrile is summarized in Table 2 below. Quantification of NO released upon photolysis was performed electrochemically with an inNO Nitric Oxide Measuring System using an ami-700 probe (Innovative Instruments Inc., Tampa, Fla.).

[3] = Quantum yields of photolysis of compounds 2 and 3 (actinometry)
[4] = Electrochemical quantification of NO / diazeniumdiolate released upon photolysis of O2-benzyl diazeniumdiolates
Description: Analysis of the above described organic products produced following photolysis of the compounds was studied in argon and oxygen-saturated 90%–99% aqueous acetonitrile. Quantification of NO released upon photolysis was performed electrochemically with an inNO Nitric Oxide Measuring System using an amiNO-2000 probe (Innovative Instruments Inc., Tampa, Fla.). The amiNO-2000 probe was calibrated using ascorbic acid/sodium nitrite before and after NO measurements were conducted. In order to differentiate NO production arising from diazeniumdiolate from non-diazeniumdiolate derived NO, the dependence of diazeniumdiolate decomposition rate on pH was utilized. […] Aqueous solutions at pH 11 of the compounds were irradiated and then analyzed for NO. Any NO detected under these conditions must arise from a non-diazeniumdiolate pathway. For all compounds examined the amount of NO formed from such a pathway was negligible. To liberate NO associated with the photoreleased diazeniumdiolate, solutions were acidified with 1.0 M H2SO4 to a pH of between 2–3. In each case, the yield of NO was determined from a series of measurements following photolysis to a range of percent conversions. […] NO yields determined from these experiment along with the observation that compound 1 dissociates to give 1.5 equivalents of NO were used to derive yields of photoreleased diazeniumdiolates from the compounds studied.
Since Path B is favored with the addition of strong π-donating meta substituents, the dihydroxybenzyl derivative of compound 3, n=0, Y=H, R1=R3=R5=H, R2=R4=OH (O^2-3,5-dihydroxybenzyl substituted diazeniumdiolate) was studied in further detail. Consistent with the expected large effect of oxyanionic meta substitution, when compound 3, n=0, Y=H, R1=R3=R5=H, R2=R4=OH is irradiated (Rayonet, 300 nm) in an aqueous solution of pH 11.2 (containing 1% acetonitrile) to 5–35% conversion, the amount of NO detected corresponded to a yield of photoreleased diazeniumdiolate compound 1 of approximately 92%. A comparison of selected results observed with O^2-substituted diazeniumdiolate derivatives having the backbone of compound 3 is shown in FIG. 1. After photolysis of the compound (t=0 sec) there is no nitric oxide production.

[5] = Rate of NO release upon photolysis compared with thermal decay of 1 and 20; conditions: for rate of photochemical release of NO versus thermal decomposition of 1 and 20: 10 seconds photolysis, Xenon arc lamp long-pass 324 nm filter, 10 mM phosphate and acetate buffers
Description: This example describes the general procedure for the determination of the rate of NO release from compounds 6 and 9 upon photolysis. Stock solutions of compounds 6 and 9 were prepared to be 100 μM in acetonitrile, and of these 15 μL aliquots were diluted into to […] of aqueous solutions at the appropriate pH (10 mM phosphate and acetate buffers). The probe was allowed to equilibrate in the sample solution before 10 seconds of photolysis using a Xenon arc lamp with a long-pass 324 nm filter. The rate of NO release was then monitored over the appropriate time span. For comparison, the thermal decay of both compounds 1 and 20 were recorded under the same conditions as those of the photochemical experiments.
As shown, this pH dependence follows the same pH dependence for the release from authentic samples of diazeniumdiolate 1.

[6] = Absolute amount of NO released from thermal decomposition of diazeniumdiolates 1 and 20; conditions: 0.15–0.66 μM in aqueous solution pH 12.2, acidified with 1.0 M sulfuric acid
Description: Determination of the absolute amount of NO released from the thermal decomposition of sodium-1-(N,N-diethylamino)-diazen-1-ium-1,2-diolate compound 1, and sodium-1-(piperidin-1-yl)-diazen-1-ium-1,2-diolate compound 20.
Stock solutions of both compounds 1 and 20 were prepared to be 100 μM in aqueous solution at pH=12.2. A series of μL aliquots of the stock solution were diluted into 3 mL of aqueous solution at pH=12.2 resulting in an array of concentrations from 0.15–0.66 μM. The probe was allowed to equilibrate in the sample solutions before the addition of 10 μL of 1.0 M sulfuric acid. The final concentration of NO in solution after complete decomposition was determined by the calibration curve, and a linear plot of NO released vs. initial concentration was obtained. By this method it was determined that compounds 1 and 20 release 1.5 and 1.8 eq. of NO respectively.

[7] = Lifespan of diazeniumdiolate 1 as a function of pH; conditions: room temperature
[8] = solvent H2O/CH3CN 99/1, photolysis 300 nm
[9] = solvent H2O/CH3CN 0/100, photolysis 254 nm
[10] = solvent H2O/CH3CN 0/100, photolysis 300 nm
[11] = solvent H2O/CH3CN 99/1, photolysis 254 nm
[12] = H2O/CH3CN 99/1, photolysis 300 nm, based on percent reactant converted, NO measured and 1.5 eq NO per diazeniumdiolate 1, estimated error ±5%

SMILES: CCN(CC)[N+]([O-])=NOC/C=C/c1cccc2c(OC)ccc(OC)c12 [O^2-(3-(5,8-dimethoxy-1-naphthyl)-E-2-propenyl)-1-(N,N-diethylamino)-diazenen-1-ium-1,2-diolate]
Quantum Yield ([1]; 355 nm (ND:YAG laser)): 0.66^b
% NO [2]: 143%
% Diazeniumdiolate [2]: 95%

Quantum Yield [3, 8]: 0.87
SMILES: CCN(CC)[N+]([O-])=NOCc1cc(O)cc(O)c1 [3 (R2 = R4 = OH), O^2-(3,5-dihydroxybenzyl)-1-(N,N-diethylamino)-diazen-1-ium-1,2-diolate]
% Diazeniumdiolate ([4]; H2O/CH3CN 99/1, photolysis 300 nm at pH 11.2, 5–35% conversion): 92^d %

Quantum Yield [3, 9]: 0.60
Quantum Yield [3, 10]: 0.17
Quantum Yield [3, 11]: 0.25
Quantum Yield [3, 8]: 0.04
SMILES: CCN(CC)[N+]([O-])=NOCc1cccc(N(C)C)c1 [3 (R2 = NMe2, R4 = H), O^2-(3-dimethylaminobenzyl)-1-(N,N-diethylamino)-diazen-1-ium-1,2-diolate]
% Diazeniumdiolate [4, 12]: 35%

SMILES: CCN(CC)[N+]([O-])=NOCc1cccc2ccccc12 [6 (n = 0, Y = R1–R7 = H), O^2-(1-naphthylmethyl)-1-(N,N-diethylamino)-1-diazen-1-ium-1,2-diolate]
Quantum Yield ([1]; 300 nm (rayonet reactor)): 0.01^a
% NO [2]: 1.5%
% Diazeniumdiolate [2]: 1%

SMILES: CCN(CC)[N+]([O-])=NOC/C=C/c1cc2ccccc2cc1OC [O^2-(3-(3-methoxy-2-naphthyl)-E-2-propenyl)-1-(N,N-diethylamino)-diazen-1-ium-1,2-diolate]
rate of photochemical release of NO versus thermal decomposition of 1 and 20 [5]: consistent with the known thermal decays
% Diazeniumdiolate [2]: 50%

SMILES: CCN(CC)[N+]([O-])=NOC/C=C/c1cccc2ccccc12 [6 (n = 1, Y = R1–R7 = H)]
Quantum Yield ([1]; 300 nm (rayonet reactor)): 0.12^a
% NO [2]: 37.5%
% Diazeniumdiolate [2]: 25%

SMILES: CCN(CC)[N+]([O-])=NOCc1cccc2c(OC)ccc(OC)c12 [O^2-(5,8-dimethoxy-1-naphthylmethyl)-1-(N,N-diethylamino)-diazen-1-ium-1,2-diolate]
Quantum Yield ([1]; 355 nm (ND:YAG laser)): 0.12^b
% NO [2]: 60%
% Diazeniumdiolate [2]: 40%

Quantum Yield [3, 9]: 0.53
Quantum Yield [3, 10]: 0.18
Quantum Yield [3, 11]: 0.26
Quantum Yield [3, 8]: 0.05
SMILES: CCN(CC)[N+]([O-])=NOCc1cc(N(C)C)cc(N(C)C)c1 [3 (R2 = R4 = NMe2), O^2-(3,5-bis-dimethylaminobenzyl)-1-(N,N-diethylamino)-diazen-1-ium-1,2-diolate]
% Diazeniumdiolate [4, 12]: 47%

SMILES: CCN(CC)[N+]([O-])=NOCc1ccc2c(OC)ccc(OC)c2c1 [O^2-(5,8-dimethoxy-2-naphthylmethyl)-1-(N,N-diethylamino)-diazen-1-ium-1,2-diolate]
Quantum Yield ([1]; 355 nm (ND:YAG laser)): 0.05^b
% NO [2]: 51%
% Diazeniumdiolate [2]: 34%

Quantum Yield [3, 9]: 0.35
Quantum Yield [3, 11]: 0.17
SMILES: CCN(CC)[N+]([O-])=NOCc1cc(OC)cc(OC)c1 [3 (R2 = R4 = MeO), O^2-(3,5-dimethoxybenzyl)-1-(N,N-diethylamino)-diazen-1-ium-1,2-diolate]
% Diazeniumdiolate [4, 12]: 10%

SMILES: COc1cc2ccccc2cc1/C=C/CON=[N+]([O-])N1CCCCC1
rate of photochemical release of NO versus thermal decomposition of 1 and 20 [5]: consistent with the known thermal decays

SMILES: [Na+].[O-]/N=[N+](\[O-])N1CCCCC1 [Compound 20, sodium-1-(piperidin-1-yl)-diazen-1-ium-1,2-diolate]
NO released upon thermal decomposition [6]: 1.8 eq.

SMILES: CCN(CC)[N+]([O-])=NOCc1cc2ccccc2cc1OC [9 (n = 0, Y = R1, R3–R7 = H, R2 = OMe), O^2-(3-methoxy-2-naphthylmethyl)-1-(N,N-diethylamino)-diazen-1-ium-1,2-diolate]
Quantum Yield ([1]; 300 nm (rayonet reactor)): 0.02^a
% NO [2]: 30%
% Diazeniumdiolate [2]: 20%
% Diazeniumdiolate ([2]; listed as 9 (where n=0, Y=R1, R3–R7=H, R2=OMe, X=diethylamino)): 50%

SMILES: CCN(CC)[N+]([O-])=NOCc1cccc(OC)c1 [3 (R2 = MeO, R4 = H), O^2-(3-methoxybenzyl)-1-(N,N-diethylamino)-diazen-1-ium-1,2-diolate]
% Diazeniumdiolate [4, 12]: 6%

SMILES: CCN(CC)/[N+]([O-])=N/[O-].[Na+] [Compound 1, sodium-1-(N,N-diethylamino)-diazen-1-ium-1,2-diolate]
NO released upon thermal decomposition [6]: 1.5 eq.
rate of release of nitric oxide from photochemically generated diazeniumdiolate ([5]; FIG. 5, varied pH): pH dependent
lifespan ([7]; pH 3): several seconds
lifespan ([7]; pH 11): several hours
